US20210145768A1, “MODULATING IMMUNE RESPONSE VIA TARGETING OF OLFACTORY RECEPTOR ACTIVITY” (La Jolla Institute for Allergy and Immunology, priority 2018, published 2021)
Several values for one entry are separate records, joined by “and”; a condition that tells them apart may be missing. Equal entries are not always repeated.

Tests used:
Olfr2 [1] = biological target: T1, Olfr2 (Mus musculus, UniProt Q9QWU6); assay: En face atherosclerosis quantification in Apoe−/− mice fed western diet; type: in vivo; design: Olfr2 expression was confirmed at the protein level on F4/80^+ vascular macrophages; from tissue; host or cells: explanted whole aortas, digested aortic cell suspensions (F4/80+ vascular macrophages) and blood monocytes of Apoe-/- C57BL/6J mice; living Apoe-/- mice for the in vivo study; settings: for atherosclerosis in mice: summary of in vivo injection experiments
T1 sequence (Q9QWU6 1-327): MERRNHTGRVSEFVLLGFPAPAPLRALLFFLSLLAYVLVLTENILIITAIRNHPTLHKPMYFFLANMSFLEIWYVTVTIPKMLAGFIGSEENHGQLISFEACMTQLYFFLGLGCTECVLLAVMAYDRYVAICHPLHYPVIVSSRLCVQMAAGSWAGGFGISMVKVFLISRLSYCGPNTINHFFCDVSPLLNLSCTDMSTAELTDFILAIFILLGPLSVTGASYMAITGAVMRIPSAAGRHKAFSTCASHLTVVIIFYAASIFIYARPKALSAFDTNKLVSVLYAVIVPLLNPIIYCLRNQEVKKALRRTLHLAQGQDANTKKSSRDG
Experimental: The effect of citral on atherosclerosis in Apoe−/− mice fed a high fat western diet, a widely used model of atherosclerosis, was investigated. Briefly, ApoE^−/− Mice (10 weeks old) were fed WD for 4 weeks before the inhibitor treatment, citral, was started. Citral at 10 mg/kg was diluted in 100 uL of PBS and injected I.P. every 3 days for 4 weeks for a total of 12 injections. During this time, mice continue to eat WD for a total of 8 weeks. […] Thus, blocking Olfr2 is anti-atherosclerotic, showing that Olfr2 contributes to atherosclerosis.
To test a possible impact of Olfr2 on atherosclerosis in vivo, male Apoe^−/− mice were fed WD for 8 weeks and injected octanal (10 μg/g) intraperitoneally for the last 4 weeks every three days for a total of 12 injections. […] Octanal had no effect on total cholesterol, LDL cholesterol, HDL cholesterol or triglycerides (FIG. 11A). Similarly, in a loss-of-function experiment, male Apoe^−/− mice were treated with citral (10 μg/g, 12 injections over 4 weeks), which reduced the size of atherosclerotic lesions by ˜40% (FIGS. 10F and G). Citral treatment like octanal had no effect on other parameters (FIG. 11A).
Male Apoe^−/− mice (9 to 10 wks old) were fed WD for 4 weeks. Oct or Cit were diluted in sterile phosphate buffered saline (PBS) (Gibco) at a final concentration of 10 μg/g. 100 μl were injected intraperitoneally (i.p.) every 3 days for 4 weeks (12 injections total) while maintaining WD administration. PBS+0.1% DMSO (Sigma Aldrich) was injected as a vehicle control following the same protocol. Mice were sacrificed, perfused with PBS implemented with 2% heparin (Fresenius Kabi USA, LLC) and aortas removed for en face atherosclerotic lesion assessment. Mouse whole blood (heart puncture) was collected in EDTA tubes. Leukocyte blood counts were determined with HemaVet 950 (Drew Scientific). Plasma was collected from blood centrifuged at 3000 g for 15 min at 4° C. and stored at −80° C. until further analysis.
After explant, each aorta was pinned out after 4% paraformaldehyde incubation at room temperature for at least 2 hours Staining for atherosclerotic plaque was performed by incubating samples in Sudan IV. Microphotographs of the luminal (endothelial) aspect were of the aortic surface were analyzed using Photoshop CS (Adobe Systems). Atherosclerotic lesion size measurement was performed by blinded investigators using Image-Pro Premier software (Media Cybernetics).

Olfr2 [2] = biological target: T1, Olfr2; assay: IL-1β production in LPS-primed mouse BMDMs; type: cell-based; design: Olfr2 expression was confirmed at the protein level on F4/80^+ vascular macrophages; from tissue; host or cells: explanted whole aortas, digested aortic cell suspensions (F4/80+ vascular macrophages) and blood monocytes of Apoe-/- C57BL/6J mice; living Apoe-/- mice for the in vivo study
Experimental: Macrophages are known producers of one of the most prominent cytokines driving atherosclerosis, IL-1β^29. IL-1β production and secretion requires assembly of the inflammasome, a cytoplasmic complex containing several proteins that serves as a molecular platform for activation of the cysteine protease caspase^30,31. To test whether octanal induced IL-1β secretion in macrophages, BMDMs were primed with low-dose LPS (50 ng/mL) for 18 h followed by exposure to octanal alone or together with citral. IL-1β protein in the supernatant was quantified by a cytokine bead array. Data are presented as mean±SEM. *p<0.05, **p<0.01, ***p<0.005, ****p<0.001. p calculated by One-Way ANOVA test, Tukey's multiple comparisons test and unpaired t-test.
Mouse BMDMs and human MDMs were pretreated with LPS (50 ng/mL) or left untreated for 18 h at 37° C. and 5% CO2. […]
Supernatants of stimulated cells and aortic tissue were analyzed by BD CBA Flex Sets (BD Biosciences) for mouse TNFα, CCL2, CCL4, IL-1β, or human TNF, IL6, and IL-1β according to the manufacturer's protocol. Samples were analyzed with LSR-II (BD Biosciences). Data was acquired with FACSDiva software (BD Biosciences) and analyzed with FCAP array software 3.0 (BD Biosciences).

Row | Compound | reduction of atherosclerotic lesion size (Olfr2 [1]; Apoe−/− mice on WD 8 weeks, citral 10 μg/g i.p. every 3 days, 12 injections over last 4 weeks) | atherosclerotic lesions, % of the aortic area (Olfr2 [1]; Apoe−/− mice on WD, citral 10 mg/kg i.p., 12 injections, untreated ~8%, P<0.02) | atherosclerosis in mice (Olfr2 [1]) | octanal-induced IL-1β release, mouse BMDMs (Olfr2 [2]; LPS priming, octanal 10 μM + citral 100 μM) | lesion size, en face staining of aortic arches (Olfr2 [1]; Apoe−/− mice on WD 8 weeks, octanal 10 μg/g i.p., 12 injections over last 4 weeks) | release of IL-1β into the supernatant, mouse BMDMs (Olfr2 [2]; LPS 50 ng/mL 18 h priming, then octanal 10 μM)
1 | CC(C)=CCCC(C)=CC=O [citral] | ~50% and ~40% | ~5% | protected mice from atherosclerosis | inhibited |  | 
2 | CCCCCCCC=O [octanal] |  |  | exacerbated atherosclerosis |  | more than doubled | strongly increased
